pIC50: −log10 of the molar value. Starred links: 1 amine or outer side, 2 acyl side, 3 side chain; linkers in the order of their positions; H or OH if unused. Non-standard residues stand in square brackets, D forms with d. Residues, ends and D or L forms follow the SMILES beside them. *: point of attachment. X6 = O=C(C1[C@H]2CC[C@H](C2)N1[*:1])[*:2]; X5 = NC12CC3CC(C1)CC(CC(=O)*)(C3)C2; dBta = N[C@H](Cc1csc2ccccc12)C(=O)O; dCit = NC(=O)NCCC[C@@H](N)C(=O)O; dTle = CC(C)(C)[C@@H](N)C(=O)O; Tle = CC(C)(C)[C@H](N)C(=O)O; dNle = CCCC[C@@H](N)C(=O)O; Nle = CCCC[C@H](N)C(=O)O; Api = NC1(C(=O)O)CCNCC1; X4 = O=C([C@H]1CNCCO1)*

These results are taken from patent US20240158438A1, “POLYPEPTIDE COMPOUND AND APPLICATION THEREOF” (CHENGDU SINTANOVO BIOTECHNOLOGY CO., LTD., priority 2021, published 2024).

The target of this test is GHSR-1a (Homo sapiens (Human), UniProt Q92847). The experiment in a line: Agonistic activity for GHSR-1a, FLIPR calcium assay. It is filed as cell-based. The following applies: agonist activity assay, Flp In-CHO-GHSR Stable Pool cells, FLIPR calcium 6 kit; read-out: The activity (IC50) of polypeptide compounds for GHSR-1a. From the text: The use of recombinant expression of GHSR provides several advantages; for example, the receptor can be expressed in a determined cell system, so that it is easier to distinguish between the reactions of the compounds with GHSR and the reactions with other receptors. For example, cell lines such as HEK293, COS7 and CHO that […] can be used to express GHSR, and the same cell lines without expression vectors are used as controls.
The activity of GHSR-1a can be measured using different techniques, for example, by detecting the change in the intracellular conformation of GHSR, the change in G-protein coupling activity, and/or the change in intracellular messengers. Techniques such as measuring intracellular Ca^2+ are preferably used to measure the activity of GHSR-1a. Examples of techniques known in the art that can be used to measure Ca^2+ include the use of FLIPR® calcium ion assay kits, among others. The FLIPR® calcium ion assay kits use a calcium ion sensitive indicator and a masking dye to ensure that a researcher carries out high-sensitivity fluorescent screening for G protein-coupled receptors, ion channels and other calcium ion sensitive targets. This experiment used FLIPR calcium 6 assay kits and FLIPR calcium 6-QF assay kits.
• a) Cell line: Flp In-CHO-GHSR Stable Pool; • b) Complete medium: F12K+10% fetal bovine serum+1×penicillin-streptomycin (PS)+600 μg/mL hygromycin B; • c) Cell seeding medium: F12K+10% fetal bovine serum. • d) Assay buffer: 1× HBSS+20 mM HEPES. • e) […] component A: Assay buffer and component A were left at room temperature (RT), 10 mL of buffer was added to component A, and the mixture was vortexed for 1-2 min and stored at −20° C.
• a) Compound stock solutions: the powders from in-house synthesis were made into 10 mM stock solutions in DMSO according to the standard protocol. • b) Compound storage: all compounds in DMSO were stored in room temperature desiccators for short-term storage (at most 4 months). The remaining compounds were left at −20 ° C. for long-term storage.
• a) Flp In-CHO-GHSR Stable Pool cells were cultured in complete medium. • b) The cells were placed in […] cell seeding medium in a 384-well cell culture plate (Corning, 3764) at 7k cells/well and cultured overnight at 37° C. with 5% CO2. • c) 20× component A was thawed at room temperature, diluted with assay buffer to 2×, and left at RT. • d) The Petri dish was taken out of the incubator and equilibrated at room temperature for 10 min. The medium was changed to […]. After the final wash, 20 μL of buffer was kept in each well, 20 μL of 2× component A was then added to each well, and the plate was incubated at 37° C. for 3-5 s. • e) 10 μL of 5× compound was added to the 384-well cell culture plate, and data collection was immediately performed using FLIPR Tetra.
• 1) Z′ factor=1−3×(SDMax+SDMin)/(MeanMax−MeanMin); • 2) CVMax=(SDMax/MeanMax)×100%; • 3) CVMin=(SDMin/MeanMin)×100%; • 4) S/B=Singal/Background; • 5) Calculation formula for IC50: • Y=Bottom+(Top−Bottom)/(1+10^((LogIC50−X)×HillSlope)) • X: log value of compound concentration; Y: Activation % or Inhibition %

Chain of GHSR-1a (Q92847 whole entry): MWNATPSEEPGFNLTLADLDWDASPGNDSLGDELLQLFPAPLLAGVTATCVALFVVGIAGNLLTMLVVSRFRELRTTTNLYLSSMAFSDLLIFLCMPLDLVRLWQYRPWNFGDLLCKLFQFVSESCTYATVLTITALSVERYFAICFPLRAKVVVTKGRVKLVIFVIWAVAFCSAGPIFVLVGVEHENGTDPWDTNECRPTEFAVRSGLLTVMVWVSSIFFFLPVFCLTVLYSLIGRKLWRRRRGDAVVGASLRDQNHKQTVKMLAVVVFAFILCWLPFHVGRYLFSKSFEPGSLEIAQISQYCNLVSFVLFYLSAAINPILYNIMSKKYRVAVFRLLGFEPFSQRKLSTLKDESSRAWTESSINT

On to `NC(=O)NCCC[C@@H](N)C(=O)N[C@H](Cc1csc2ccccc12)C(=O)N[C@H](Cc1c[nH]c2ccccc12)C(=O)N[C@@H](Cc1ccccc1)C(=O)NC1(C(N)=O)CCNCC1` [Compound 1] (H-[dCit][dBta][dW]F[Api]-NH2), for which the pIC50 is 6.82. The figure for `NCCCC[C@@H](N)C(=O)N[C@H](Cc1csc2ccccc12)C(=O)N[C@H](Cc1c[nH]c2ccccc12)C(=O)N[C@@H](Cc1ccccc1)C(=O)NC1(C(N)=O)CCNCC1` [Compound 4] (H-[dK][dBta][dW]F[Api]-NH2) is 5.95; for `NCCCC[C@H](N)C(=O)N[C@H](Cc1csc2ccccc12)C(=O)N[C@H](Cc1c[nH]c2ccccc12)C(=O)N[C@@H](Cc1ccccc1)C(=O)NC1(C(N)=O)CCNCC1` [Compound 5] (H-K[dBta][dW]F[Api]-NH2) it is under 6.00.

Turning to `CC(=O)N[C@H](CCCNC(N)=O)C(=O)N[C@H](Cc1csc2ccccc12)C(=O)N[C@H](Cc1c[nH]c2ccccc12)C(=O)N[C@@H](Cc1ccccc1)C(=O)NC1(C(N)=O)CCNCC1` [Compound 6] (Ac-[dCit][dBta][dW]F[Api]-NH2), the pIC50 is under 6.00. For the molecule `CC(=O)N[C@H](CCCCN)C(=O)N[C@H](Cc1csc2ccccc12)C(=O)N[C@H](Cc1c[nH]c2ccccc12)C(=O)N[C@@H](Cc1ccccc1)C(=O)NC1(C(N)=O)CCNCC1` [Compound 7] (Ac-[dK][dBta][dW]F[Api]-NH2), the pIC50 was 6.03. Consider `CC(=O)N[C@@H](CCCCN)C(=O)N[C@H](Cc1csc2ccccc12)C(=O)N[C@H](Cc1c[nH]c2ccccc12)C(=O)N[C@@H](Cc1ccccc1)C(=O)NC1(C(N)=O)CCNCC1` [Compound 8] (Ac-K[dBta][dW]F[Api]-NH2), for which the pIC50 is under 6.00. In the case of `N=C(N)NCCC[C@@H](N)C(=O)N[C@H](Cc1csc2ccccc12)C(=O)N[C@H](Cc1c[nH]c2ccccc12)C(=O)N[C@@H](Cc1ccccc1)C(=O)NC1(C(N)=O)CCNCC1` [Compound 9] (H-[dR][dBta][dW]F[Api]-NH2), the pIC50 is 6.99. As for `CC(=O)NCCCC[C@@H](N)C(=O)N[C@H](Cc1csc2ccccc12)C(=O)N[C@H](Cc1c[nH]c2ccccc12)C(=O)N[C@@H](Cc1ccccc1)C(=O)NC1(C(N)=O)CCNCC1` [Compound 10] (H-[dK](Ac)[dBta][dW]F[Api]-NH2), the pIC50 is 6.65. Regarding `CC(C)(C)[C@@H](N)C(=O)N[C@H](Cc1csc2ccccc12)C(=O)N[C@H](Cc1c[nH]c2ccccc12)C(=O)N[C@@H](Cc1ccccc1)C(=O)NC1(C(N)=O)CCNCC1` [Compound 17] (H-[dTle][dBta][dW]F[Api]-NH2), the pIC50 is 7.51. Take `CC(C)(C)[C@H](N)C(=O)N[C@H](Cc1csc2ccccc12)C(=O)N[C@H](Cc1c[nH]c2ccccc12)C(=O)N[C@@H](Cc1ccccc1)C(=O)NC1(C(N)=O)CCNCC1` [Compound 18] (H-[Tle][dBta][dW]F[Api]-NH2): the pIC50 was 7.63. As for `CCCC[C@@H](N)C(=O)N[C@H](Cc1csc2ccccc12)C(=O)N[C@H](Cc1c[nH]c2ccccc12)C(=O)N[C@@H](Cc1ccccc1)C(=O)NC1(C(N)=O)CCNCC1` [Compound 19] (H-[dNle][dBta][dW]F[Api]-NH2), the pIC50 was 7.37. In the case of `CCCC[C@H](N)C(=O)N[C@H](Cc1csc2ccccc12)C(=O)N[C@H](Cc1c[nH]c2ccccc12)C(=O)N[C@@H](Cc1ccccc1)C(=O)NC1(C(N)=O)CCNCC1` [Compound 20] (H-[Nle][dBta][dW]F[Api]-NH2), the pIC50 is 7.24. For the molecule `NC(=O)C1(NC(=O)[C@H](Cc2ccccc2)NC(=O)[C@@H](Cc2c[nH]c3ccccc23)NC(=O)[C@@H](Cc2csc3ccccc23)NC(=O)[C@H]2CNCCO2)CCNCC1` [Compound 27] (X4-[dBta][dW]F[Api]-NH2), the pIC50 is 7.48. The figure for `NC(=O)C1(NC(=O)[C@H](Cc2ccccc2)NC(=O)[C@@H](Cc2c[nH]c3ccccc23)NC(=O)[C@@H](Cc2csc3ccccc23)NC(=O)CC23CC4CC(CC(N)(C4)C2)C3)CCNCC1` [Compound 28] (X5-[dBta][dW]F[Api]-NH2) is 7.27; for `NC(=O)C1(NC(=O)[C@H](Cc2ccccc2)NC(=O)[C@@H](Cc2c[nH]c3ccccc23)NC(=O)[C@@H](Cc2csc3ccccc23)NC(=O)C2N[C@@H]3CC[C@H]2C3)CCNCC1` (stereo partly shown) [Compound 29] (H-[X6][dBta][dW]F[Api]-NH2) it is 7.88.

In the case of `NCCCC[C@@H](NC(=O)[C@H](Cc1ccccc1)NC(=O)[C@@H](Cc1c[nH]c2ccccc12)NC(=O)[C@@H](Cc1csc2ccccc12)NC(=O)[C@H](N)CCCNC(N)=O)C(N)=O` [Compound 31] (H-[dCit][dBta][dW]F[dK]-NH2), the pIC50 was 7.68.

Take `NCCCC[C@@H](N)C(=O)N[C@H](Cc1csc2ccccc12)C(=O)N[C@H](Cc1c[nH]c2ccccc12)C(=O)N[C@@H](Cc1ccccc1)C(=O)N[C@H](CCCCN)C(N)=O` [Compound 34] (H-[dK][dBta][dW]F[dK]-NH2): the pIC50 was 7.11. As for `NCCCC[C@H](N)C(=O)N[C@H](Cc1csc2ccccc12)C(=O)N[C@H](Cc1c[nH]c2ccccc12)C(=O)N[C@@H](Cc1ccccc1)C(=O)N[C@H](CCCCN)C(N)=O` [Compound 35] (H-K[dBta][dW]F[dK]-NH2), the figure is 6.99; as for `CC(=O)N[C@H](CCCNC(N)=O)C(=O)N[C@H](Cc1csc2ccccc12)C(=O)N[C@H](Cc1c[nH]c2ccccc12)C(=O)N[C@@H](Cc1ccccc1)C(=O)N[C@H](CCCCN)C(N)=O` [Compound 36] (Ac-[dCit][dBta][dW]F[dK]-NH2), 6.91.

`CC(=O)N[C@H](CCCCN)C(=O)N[C@H](Cc1csc2ccccc12)C(=O)N[C@H](Cc1c[nH]c2ccccc12)C(=O)N[C@@H](Cc1ccccc1)C(=O)N[C@H](CCCCN)C(N)=O` [Compound 37] (Ac-[dK][dBta][dW]F[dK]-NH2): the pIC50 is 6.54.

Turning to `CC(=O)N[C@@H](CCCCN)C(=O)N[C@H](Cc1csc2ccccc12)C(=O)N[C@H](Cc1c[nH]c2ccccc12)C(=O)N[C@@H](Cc1ccccc1)C(=O)N[C@H](CCCCN)C(N)=O` [Compound 38] (Ac-K[dBta][dW]F[dK]-NH2), the pIC50 is 6.40.

On to `N=C(N)NCCC[C@@H](N)C(=O)N[C@H](Cc1csc2ccccc12)C(=O)N[C@H](Cc1c[nH]c2ccccc12)C(=O)N[C@@H](Cc1ccccc1)C(=O)N[C@H](CCCCN)C(N)=O` [Compound 39] (H-[dR][dBta][dW]F[dK]-NH2), for which the pIC50 was 6.57. The figure for `CC(=O)NCCCC[C@@H](N)C(=O)N[C@H](Cc1csc2ccccc12)C(=O)N[C@H](Cc1c[nH]c2ccccc12)C(=O)N[C@@H](Cc1ccccc1)C(=O)N[C@H](CCCCN)C(N)=O` [Compound 40] (H-[dK](Ac)[dBta][dW]F[dK]-NH2) is 6.29; for `NCCCC[C@@H](NC(=O)[C@H](Cc1ccccc1)NC(=O)[C@@H](Cc1c[nH]c2ccccc12)NC(=O)[C@@H](Cc1csc2ccccc12)NC(=O)CN)C(N)=O` [Compound 41] (H-G[dBta][dW]F[dK]-NH2) it is 7.50. As for `C[C@@H](N)C(=O)N[C@H](Cc1csc2ccccc12)C(=O)N[C@H](Cc1c[nH]c2ccccc12)C(=O)N[C@@H](Cc1ccccc1)C(=O)N[C@H](CCCCN)C(N)=O` [Compound 42] (H-[dA][dBta][dW]F[dK]-NH2), the pIC50 is 7.40. Consider `CC(C)[C@@H](N)C(=O)N[C@H](Cc1csc2ccccc12)C(=O)N[C@H](Cc1c[nH]c2ccccc12)C(=O)N[C@@H](Cc1ccccc1)C(=O)N[C@H](CCCCN)C(N)=O` [Compound 43] (H-[dV][dBta][dW]F[dK]-NH2), for which the pIC50 is 7.65. In the case of `CC(C)C[C@@H](N)C(=O)N[C@H](Cc1csc2ccccc12)C(=O)N[C@H](Cc1c[nH]c2ccccc12)C(=O)N[C@@H](Cc1ccccc1)C(=O)N[C@H](CCCCN)C(N)=O` [Compound 44] (H-[dL][dBta][dW]F[dK]-NH2), the pIC50 was 7.87.

Take `CCCC[C@@H](N)C(=O)N[C@H](Cc1csc2ccccc12)C(=O)N[C@H](Cc1c[nH]c2ccccc12)C(=O)N[C@@H](Cc1ccccc1)C(=O)N[C@H](CCCCN)C(N)=O` [Compound 49] (H-[dNle][dBta][dW]F[dK]-NH2): the pIC50 was 7.23.
